Data on one compound can be found in US20210309961A1, “METHOD OF THREE-DIMENSIONAL MICROORGANISMS BIOFILMS FABRICATION” (VIVAX BIO, LLC, priority 2020, published 2021).

This assay deals with E. coli ATCC 43890. Description: Survivability of E. coli ATCC 43890 in presence of gadobutrol (cfu count by plating decimal dilutions). Type of assay: cell-based, Escherichia coli. The protocol: A. (1) E. coli culture ATCC 43890 grown on LB broth during the night, (2) bacteria culture grown on LB broth and incubated with 0,2 M of gadobutrol in magnetic bioprinter for 24 hours, and (3) bacteria culture cultivated in paramagnetic substrate containing 0,2 M of gadobutrol in magnetic bioprinter for 24 hours; bacteria were sown in decimal dilution; diagram is showing concentrations calculated in three independent experiments.
The E. coli ATCC 43890 (cultured in different conditions) concentrations were estimated for analysis of survivability of bacteria in presence of gadobutrol. Primary culture has shown concentrations of 2.3×10^9, 2.1×10^9 and 1.9×10^8 cfu/ml for fresh night culture grown in LB broth during the night (1), for culture grown in LB broth during the night and then incubated with 0.2M gadobutrol in the bioprinter for next 24 hours (2), and culture grown under magnetic levitation in the paramagnetic nutrient medium (3) respectively (FIG. 4A). […] Moreover, the results have shown that the bacteria proliferated in the paramagnetic culture medium, that was observed due to the increase in concentration during cultivation: the initial bacteria (diluted in fresh paramagnetic medium) concentration was 2.3×10^7 cfu/ml ( 1/100 from the fresh night culture) and final concentration was 1.9×10^8 cfu/ml.

Each structure is given as a SMILES string.

Consider `O=C([O-])CN1CCN(CC(=O)[O-])CCN(C(CO)C(O)CO)CCN(CC(=O)[O-])CC1.[Gd+3]` (stereo not drawn) [gadobutrol, [10-[2,3-dihydroxy-1-(hydroxymethyl)propyl]-1,4,7,10-tetraazacyclododecane-1,4,7-triaceto(3-)-N^1,N^4,N^7,N^10,O^1,O^4,O^7]gadolinium], for which the “survivability of bacteria after incubation” value (0.2M gadobutrol) is given as “bacteria saved their survivability”. Besides, the bacteria concentration (culture grown in LB broth during the night, then incubated with 0.2M gadobutrol in the bioprinter for next 24 hours) is 2.1×10^9 cfu/ml and the bacteria concentration (culture grown under magnetic levitation in paramagnetic nutrient medium (0.2 M gadobutrol) for 24 hours, initial concentration 2.3×10^7 cfu/ml) is 1.9×10^8 cfu/ml.
